Results as given in patent US8293240B2, “Method of treating drug-resistant cancer” (The Regents of the University of Colorado, priority 2004, dated 2012).

Legend:
[1] = tested on: B16F1; assay: % death of B16F1 cells treated or not with cerulenin (flow cytometry); format: cell-based, mouse; details: B16F1, 25 ug/mL Cerulenin
Procedure: (§1) Statistical Analysis, Percents, and Geometric Mean Values Percents. Gating is a tool provided by Cell Quest software and allows for the analysis of a certain population of cells. Gating around both the live and dead cell populations gave a percent of the cell numbers that was in each population. After the gates were drawn, a percent value of dead cells was calculated by taking the number of dead cells divided by the number of total cells and multiplying by one hundred.
(§2) This example illustrates an embodiment of the invention, where multi-drug resistant cancer cells were exposed to compositions of the invention. Analysis of the cells was performed using flow cytometry. The flow cytometry experiments were performed as follows. The cells were harvested, counted, and resuspended as described above. For DNA staining, the cells were washed and resuspended in ice-cold PBS and fixed by the dropwise addition of 95% ethanol. The cells were then incubated for 30 minutes on ice, washed, and resuspended in PBS containing 1% formaldehyde and 0.01% Tween. The cells were incubated with 50 units of DNAse and washed with PBS containing 5% DNAse. The cells were then incubated with anti DNA Fab (166, kind gift of Dr. Susan Wallace, University of Vermont), then washed and stained with a fluorescein conjugated second step anti-mouse immunoglobulin. The cells were then washed and resuspended in PBS/3% BSA/1% formaldehyde. The cells were stained for intracellular H2O2 using 6-carboxy-2′,7′-dichlorodihydrofluorescein diacetate (DCF-DA, Molecular Probes, Eugene, Oreg.). The cells were incubated with 1 mM DCF-DA for 20 minutes, washed twice in PBS containing 5% fetal calf serum and analyzed using flow cytometry. The mitochondrial membrane potential was assessed using MitoTracker Red (CM-H2XROS, Molecular Probes, Eugene, Oreg.). The cells were resuspended in warm (37° C.) PBS containing a final concentration of 0.5 micromolar of dye. The cells were then incubated for 30 minutes, pelleted, and resuspended in prewarmed medium for analysis. The data was acquired on a Coulter Elite Epics or Excel flow cytometer (Coulter, Hialeah, Fla.) and analyzed with CellQuest software, (Becton Dickinson, San Jose, Calif.). […] Each sample population was classified for cell size (forward scatter) and complexity (side scatter), gated on a population of interest and evaluated using 40,000 cells. Each figure describing flow cytometric data represents one of at least four replicate experiments. […]
(§3) The flow cytometry experiments were performed as follows. Once the samples were prepared and transferred into flow cytometric tubes, the samples were analyzed on a Becton/Dickinson Flow Cytometer. […] Statistical analysis, percents, and geometric mean values percents were calculated as described above.

[2] = tested on: HL60; assay: % death / microscopy of HL60 cells treated or not with cerulenin; format: cell-based, human; details: for % Death: HL60, 25 ug/mL Cerulenin
Procedure: as §1
(§4) This example illustrates an embodiment of the invention, where multi-drug resistant cancer cells were exposed to compositions of the invention. Analysis of the cells was performed using flow cytometry. The flow cytometry experiments were performed as follows. The cells were harvested, counted, and resuspended as described above. For DNA staining, the cells were washed and resuspended in ice-cold PBS and fixed by the dropwise addition of 95% ethanol. The cells were then incubated for 30 minutes on ice, washed, and resuspended in PBS containing 1% formaldehyde and 0.01% Tween. The cells were incubated with 50 units of DNAse and washed with PBS containing 5% DNAse. […] The cells were incubated with 1 mM DCF-DA for 20 minutes, washed twice in PBS containing 5% fetal calf serum and analyzed using flow cytometry. The mitochondrial membrane potential was assessed using MitoTracker Red (CM-H2XROS, Molecular Probes, Eugene, Oreg.). […] The data was acquired on a Coulter Elite Epics or Excel flow cytometer (Coulter, Hialeah, Fla.) and analyzed with CellQuest software, (Becton Dickinson, San Jose, Calif.). […] Each sample population was classified for cell size (forward scatter) and complexity (side scatter), gated on a population of interest and evaluated using 40,000 cells. […]
(§5) The flow cytometry experiments were performed as follows. Once the samples were prepared and transferred into flow cytometric tubes, the samples were analyzed on a Becton/Dickinson Flow Cytometer. […] Statistical analysis, percents, and geometric mean values percents were calculated as described above. […]

[3] = tested on: HL60 MDR; assay: % death / microscopy of HL60 MDR cells treated or not with cerulenin; format: cell-based, human; details: for % Death: 25 ug/mL Cerulenin
Procedure: as §1, §2, §5

[4] = tested on: L1210; assay: % death of L1210 cells treated or not with cerulenin (flow cytometry); format: cell-based; details: L1210, 25 ug/mL Cerulenin
Procedure: as §1
as §4, with “above.” for “above. For DNA staining, the cells were washed and resuspended in ice-cold PBS and fixed by the dropwise addition of 95% ethanol. The cells were then incubated for 30 minutes on ice, washed, and resuspended in PBS containing 1% formaldehyde and 0.01% Tween. The cells were incubated with 50 units of DNAse and washed with PBS containing 5% DNAse.”

[5] = tested on: L1210 DDP; assay: % death of L1210 DDP cells treated or not with cerulenin (flow cytometry); format: cell-based; details: for % Death: 25 ug/mL Cerulenin
Procedure: as §1, §4, §3

[6] = tested on: B16F1 melanoma cells; assay: mice injected with B16F1 melanoma cells exposed or not to cerulenin; format: in vivo; details: for tumor observation and activity of mouse: B16F1 10^6 cells treated w/25 ug/ml cerulenin 5.0 hrs before injection
Text: Highly carcinogenic B16F1 melanoma cells were either exposed (“treated”) or not exposed to cerulenin, then injected into male mice.

[7] = tested on: HL60 MDR human leukemia cells; assay: percent death of HL60 MDR cells (flow cytometry, live versus dead); format: cell-based
Procedure: Dot plots as a function of live versus dead cells. The cells were cultured at a concentration of 0.5 to 1 million cells per ml. Cells were untreated or treated with or 2-deoxy-D-glucose and/or etomoxir and/or antibodies to UCP2 and used at dilutions or concentrations as indicated on the figure. The cells were cultured in the presence or absence of etomoxir at 100 micrograms/ml for 24 hours followed by treatment with antibody as indicated for an additional 24 or 48 hours (i.e. totals of 48 hours or 72 hours respectively). Cells were harvested and analyzed by flow cytometry. Each dot on the dot plot represents one cell. Five thousand cells were assessed for forward scatter (FS), as a function of cell size, versus side scatter (SS), as a function of cellular granularity. The upper elipse represents live cells by these criterion and the lower elipse in each dot plot represents the dead cells.
HL60 MDR human leukemia cells were cultured as described above under “Materials and Methods”. Cells were untreated or treated with etomoxir, with 2-deoxy-D-glucose, or with a combination of etomoxir and 2-deoxy-D-glucose, at concentrations indicated in FIG. 27 for 24 hours. Cells were harvested and analyzed by flow cytometry.
Referring to FIGS. 31 and 32, HL60 MDR cells, cultured as described in Example 21, were untreated or treated with etomoxir, with 2-deoxy-D-glucose, or with a combination of etomoxir and 2-deoxy-D-glucose, at concentrations indicated in FIG. 31 for 48 hours. Cells were harvested and analyzed by flow cytometry.
Referring to FIGS. 35 and 36, HL60 MDR cells, cultured as described in Example 21, were treated with anti-UCP2 antibody and otherwise untreated or treated simultaneously with etomoxir, 2-deoxy-D-glucose, or both, at concentrations indicated in FIG. 35 for 48 hours. Cells were harvested and analyzed by flow cytometry.

[8] = tested on: RD cells (rhabdomyosarcoma cells-not drug resistant); assay: percent death of RD cells (flow cytometry, live versus dead); format: cell-based
Procedure: The cells were cultured at a concentration of 0.5 to 1 million cells per ml. Cells were untreated or treated with or 2-deoxy-D-glucose and/or etomoxir and/or antibodies to UCP2 and used at dilutions or concentrations as indicated on the figure. The cells were cultured in the presence or absence of etomoxir at 100 micrograms/ml for 24 hours followed by treatment with antibody as indicated for an additional 24 or 48 hours (i.e. totals of 48 hours or 72 hours respectively). Cells were harvested and analyzed by flow cytometry. Each dot on the dot plot represents one cell. Five thousand cells were assessed for forward scatter (FS), as a function of cell size, versus side scatter (SS), as a function of cellular granularity. The upper elipse represents live cells by these criterion and the lower elipse in each dot plot represents the dead cells.
Referring to FIGS. 29 and 30, RD cells (rhabdomyosarcoma cells-not drug resistant), cultured as described above under “Materials and Methods” were untreated or treated with etomoxir, with 2-deoxy-D-glucose, or with a combination of etomoxir and 2-deoxy-D-glucose, at concentrations indicated in FIG. 29 for 24 hours. Cells were harvested and analyzed by flow cytometry.
Referring to FIGS. 33 and 34, RD cells, cultured as described in Example 22, were untreated or treated with etomoxir, with 2-deoxy-D-glucose, or with a combination of etomoxir and 2-deoxy-D-glucose, at concentrations indicated in FIG. 33 for 48 hours. Cells were harvested and analyzed by flow cytometry.
Referring to FIGS. 37 and 38, RD cells, cultured as described in Example 22, were treated with anti-UCP2 antibody and otherwise untreated or treated simultaneously with etomoxir, 2-deoxy-D-glucose, or both, at concentrations indicated in FIG. 37 for 48 hours. Cells were harvested and analyzed by flow cytometry.

[9] = tested on: HL60 MDR tumor; assay: tumor volume of HL60 MDR tumor implanted in nude mice; format: in vivo; details: for tumor volume: 200 ug Etomoxir, 2.5 mM 2-Deoxy-D-glucose
Text: Tumor implantation. Mice were purchased from the Animal Production Program of National Cancer Institute, Frederick, Md. The animals used were Athymic Ncr-nu/nu (strain code 01B74). HL60 MDR cells were harvested and reconstituted at 1 million cells per 100 microliters of phosphate buffered saline. One million tumor cells per injection site were implanted subcutaneously on two sites of the animal's back. Treatments began at exactly seven days post tumor implantation. Tumor size/volume was monitored twice weekly using measurement calipers, with the formula Tumor Volume=π×(short diameter)^2×(long diameter)/6.
Mice experiments with fatty acid metabolism and glucose metabolism inhibitors. Fatty acid metabolism inhibitors were exemplified by etomoxir at 200 micrograms/day. Glucose metabolism inhibitors were exemplified by 2-deoxy-D-glucose at 2.5 mM in 100 microliters daily. The combination was administered daily, etomoxir at 200 micrograms and 2-deoxy-D-glucose at 2.5 mM in 100 microliters. All drugs were administered intra-peritoneally. Fluorouracil, at 20 mg per kilogram mouse, was injected intra-peritoneally once a week
HL60 MDR human leukemia cells were cultured and implanted in nude mice as described above under “Materials and Methods”. The mice were given 200 ug of Etomoxir, 2.5 mM 2-Deoxy-D-glucose, or both 200 ug of Etomoxir and 2.5 mM 2-Deoxy-D-glucose given daily by IP injection. Treatment began exactly one week after tumor implantation.
Mice were purchased from National Cancer Institute, Animal Production Program (Frederick, Md.). The animals used were Athymic Ncr-nu/nu (Strain code 01B74). HL60 MDR cells were harvested and reconstituted at 1 million cells per 100 microliters of phosphate buffered saline. One million tumor cells/per injection site were implanted subcutaneously on two sites of the animal's back. Treatments began at exactly seven days post tumor implantation. Tumor size/volume was monitored twice weekly using measurement calipers with the formula for Tumor Volume=π(short diameter)^2(long diameter)/(divided by )6. […]

[10] = 5-FU that is taken up by the cell; cited from earlier work

C/C=C/C/C=C/CCC(=O)[C@H]1O[C@H]1C(N)=O [cerulenin]
% Death ([1]; 4 Hours (Table 1)): 0% | % Death ([1]; 5.0 Hours (Table 2)): 67% | % Death ([1]; 24 hours (Table 2)): 72% | % Death ([1]; .0 Hours (Table 1)): 1% | % Death ([2]; 4 Hours (Table 1)): 4% | % Death ([2]; .0 Hours (Table 1)): 1% | cell survival in microscopy images ([2]; HL60 cells treated with cerulenin, FIG. 4C): large numbers of the cells survived | cell death in microscopy images ([3]; HL60 MDR cells treated with cerulenin, FIGS. 4E and 4F): large numbers of cell death | % Death ([3]; HL60 MDR, 4 Hours (Table 1)): 9.6% | % Death ([3]; HL60 MDR, .0 Hours (Table 1)): 3% | cell death compared to control and non-multidrug resistant cancer cells ([3]; HL60 MDR, after treatment with cerulenin): greater amounts of cell death | % Death ([4]; 7.0 Hours): 27% | % Death ([4]; 24 Hours): 89% | % Death ([5]; 7.0 Hours): 14% | % Death ([5]; 24 Hours): 92% | cell death compared to control and non-multidrug resistant cancer cells ([5]; after treatment with cerulenin): greater amounts of cell death | tumor observation and activity of mouse ([6]; Day 9): Day 9 no visible sign of tumors - very active | tumor observation and activity of mouse ([6]; Day 12): Day 12 no visible tumors - very active (FIG. 5D) | tumor observation and activity of mouse ([6]; Day 13): Day 13 no visible tumors - very active | development of lethal cancers ([6]; mice exposed to melanoma cells treated with cerulenin, during the experiment): did not develop lethal cancers

OC[C@H]1O[C@H](O)CC(O)[C@@H]1O (stereo partly drawn) [2-deoxy-D-glucose]
percent of cell deaths ([7]; HL60 MDR cells after 24 hours): 16% | percent of cell deaths ([7]; HL60 MDR cells after 48 hours): 38% | percent of cell deaths ([8]; RD cells after 24 hours): 46% | percent of cell deaths ([8]; RD cells after 48 hours): 63% | tumor volume ([9]; Day 7, daily IP from one week after implantation): 35 mm^3 | tumor volume ([9]; Day 9, daily IP): 51.56 mm^3 | tumor volume ([9]; Day 15, daily IP): 158.55 mm^3 | tumor volume ([9]; Day 21, daily IP): 1,181.61 mm^3 | effect on tumor growth ([9]; HL60 MDR in nude mice, 21 day period, single agent): increase in tumor growth

O=c1[nH]cc(F)c(=O)[nH]1 [5-FU, 5-Fluorouracil]
half-life in vivo [10]: about 18 minutes
